Experiment: xn = mol fraction of the nth substance listed
Settings: for surface tension liquid-gas: roughened platinum plate-detachment; for viscosity / mass density: 101 kPa, Liquid; for viscosity: Capillary tube (Ostwald / Ubbelohde) method; for mass density: Vibrating tube method

CN(C)CCCO [3-dimethylamino-1-propanol] + O
Settings | mass density [kg/m3] | surface tension liquid-gas [mN/m] | viscosity [mPa·s]
298.15 K, x1 = 0.0979 | – | 36.93 | –
298.15 K, x1 = 0.1002 | 978.93 | – | 6.617
298.15 K, x1 = 0.1971 | – | 35.21 | –
298.15 K, x1 = 0.201 | 960.36 | – | 14
298.15 K, x1 = 0.2927 | – | 33.39 | –
298.15 K, x1 = 0.297 | 943.21 | – | 19.6
298.15 K, x1 = 0.3979 | – | 32.02 | –
298.15 K, x1 = 0.4001 | 929.16 | – | 20.8
298.15 K, x1 = 0.4996 | – | 31.04 | –
298.15 K, x1 = 0.5013 | 917.07 | – | 19.5
298.15 K, x1 = 0.5975 | – | 30.56 | –
298.15 K, x1 = 0.6019 | 907.19 | – | 15.1
298.15 K, x1 = 0.6939 | 899.28 | – | 12.3
298.15 K, x1 = 0.6998 | – | 29.87 | –
298.15 K, x1 = 0.7946 | – | 29.33 | –
298.15 K, x1 = 0.8006 | 891.51 | – | 9.402
298.15 K, x1 = 0.8989 | 885.51 | – | 7.474
298.15 K, x1 = 0.8997 | – | 28.22 | –
298.15 K, x1 = 1 | 880.25 | 29.01 | 5.839
303.15 K, x1 = 0.0979 | – | 34.56 | –
303.15 K, x1 = 0.1002 | 975.53 | – | 5.319
303.15 K, x1 = 0.1971 | – | 34.17 | –
303.15 K, x1 = 0.201 | 956.53 | – | 10.8
303.15 K, x1 = 0.2927 | – | 31.4 | –
303.15 K, x1 = 0.297 | 939.37 | – | 14.4
303.15 K, x1 = 0.3979 | – | 31.61 | –
303.15 K, x1 = 0.4001 | 925.16 | – | 15.9
303.15 K, x1 = 0.4996 | – | 30.59 | –
303.15 K, x1 = 0.5013 | 913.1 | – | 15.6
303.15 K, x1 = 0.5975 | – | 29.91 | –
303.15 K, x1 = 0.6019 | 903.25 | – | 11.9
303.15 K, x1 = 0.6939 | 895.35 | – | 9.94
303.15 K, x1 = 0.6998 | – | 29.34 | –
303.15 K, x1 = 0.7946 | – | 28.87 | –
303.15 K, x1 = 0.8006 | 887.57 | – | 7.954
303.15 K, x1 = 0.8989 | 881.52 | – | 6.226
303.15 K, x1 = 0.8997 | – | 27.64 | –
303.15 K, x1 = 1 | 876.46 | 29.28 | 4.963
308.15 K, x1 = 0.0979 | – | 32.51 | –
308.15 K, x1 = 0.1971 | – | 32.13 | –
308.15 K, x1 = 0.2927 | – | 30.61 | –
308.15 K, x1 = 0.3979 | – | 30.51 | –
308.15 K, x1 = 0.4996 | – | 30.2 | –
308.15 K, x1 = 0.5975 | – | 29.3 | –
308.15 K, x1 = 0.6998 | – | 28.72 | –
308.15 K, x1 = 0.7946 | – | 28.45 | –
308.15 K, x1 = 0.8997 | – | 26.42 | –
308.15 K, x1 = 1 | – | 28.88 | –
313.15 K, x1 = 0.0979 | – | 32.02 | –
313.15 K, x1 = 0.1002 | 968.53 | – | 3.808
313.15 K, x1 = 0.1971 | – | 31.26 | –
313.15 K, x1 = 0.201 | 948.48 | – | 7.433
313.15 K, x1 = 0.2927 | – | 29.79 | –
313.15 K, x1 = 0.297 | 931.17 | – | 10.2
313.15 K, x1 = 0.3979 | – | 30.12 | –
313.15 K, x1 = 0.4001 | 916.99 | – | 11
313.15 K, x1 = 0.4996 | – | 29.33 | –
313.15 K, x1 = 0.5013 | 905.01 | – | 10.7
313.15 K, x1 = 0.5975 | – | 28.76 | –
313.15 K, x1 = 0.6019 | 895.21 | – | 8.899
313.15 K, x1 = 0.6939 | 887.38 | – | 7.649
313.15 K, x1 = 0.6998 | – | 28.23 | –
313.15 K, x1 = 0.7946 | – | 27.82 | –
313.15 K, x1 = 0.8006 | 879.6 | – | 6.319
313.15 K, x1 = 0.8989 | 873.52 | – | 5.192
313.15 K, x1 = 0.8997 | – | 26.23 | –
313.15 K, x1 = 1 | 868.42 | 28.47 | 4.266
318.15 K, x1 = 0.0979 | – | 30.72 | –
318.15 K, x1 = 0.1971 | – | 29.83 | –
318.15 K, x1 = 0.2927 | – | 28.55 | –
318.15 K, x1 = 0.3979 | – | 29.78 | –
318.15 K, x1 = 0.4996 | – | 28.69 | –
318.15 K, x1 = 0.5975 | – | 28.51 | –
318.15 K, x1 = 0.6998 | – | 27.87 | –
318.15 K, x1 = 0.7946 | – | 27.54 | –
318.15 K, x1 = 0.8997 | – | 25.6 | –
318.15 K, x1 = 1 | – | 28.13 | –
323.15 K, x1 = 0.0979 | – | 28.2 | –
323.15 K, x1 = 0.1002 | 961.28 | – | 2.743
323.15 K, x1 = 0.1971 | – | 29.54 | –
323.15 K, x1 = 0.201 | 940.25 | – | 4.975
323.15 K, x1 = 0.2927 | – | 28.28 | –
323.15 K, x1 = 0.297 | 922.77 | – | 6.606
323.15 K, x1 = 0.3979 | – | 28.91 | –
323.15 K, x1 = 0.4001 | 908.62 | – | 7.162
323.15 K, x1 = 0.4996 | – | 28.65 | –
323.15 K, x1 = 0.5013 | 896.72 | – | 7.031
323.15 K, x1 = 0.5975 | – | 27.57 | –
323.15 K, x1 = 0.6019 | 887.02 | – | 6.036
323.15 K, x1 = 0.6939 | 879.25 | – | 5.28
323.15 K, x1 = 0.6998 | – | 27.36 | –
323.15 K, x1 = 0.7946 | – | 27.1 | –
323.15 K, x1 = 0.8006 | 871.47 | – | 4.526
323.15 K, x1 = 0.8989 | 865.41 | – | 3.848
323.15 K, x1 = 0.8997 | – | 25.43 | –
323.15 K, x1 = 1 | 860.29 | 27.63 | 3.253
333.15 K, x1 = 0.0979 | – | 26.75 | –
333.15 K, x1 = 0.1002 | 953.71 | – | 2.169
333.15 K, x1 = 0.1971 | – | 28.32 | –
333.15 K, x1 = 0.201 | 931.78 | – | 3.514
333.15 K, x1 = 0.2927 | – | 27.56 | –
333.15 K, x1 = 0.297 | 914.15 | – | 4.536
333.15 K, x1 = 0.3979 | – | 27.91 | –
333.15 K, x1 = 0.4001 | 900.04 | – | 4.707
333.15 K, x1 = 0.4996 | – | 27.54 | –
333.15 K, x1 = 0.5013 | 888.25 | – | 4.797
333.15 K, x1 = 0.5975 | – | 26.74 | –
333.15 K, x1 = 0.6019 | 878.64 | – | 4.286
333.15 K, x1 = 0.6939 | 870.93 | – | 3.831
333.15 K, x1 = 0.6998 | – | 26.36 | –
333.15 K, x1 = 0.7946 | – | 26.32 | –
333.15 K, x1 = 0.8006 | 863.22 | – | 3.369
333.15 K, x1 = 0.8989 | 857.19 | – | 2.94
333.15 K, x1 = 0.8997 | – | 24.76 | –
333.15 K, x1 = 1 | 852.1 | 26.81 | 2.768
343.15 K, x1 = 0.1002 | 945.85 | – | 1.686
343.15 K, x1 = 0.201 | 923.1 | – | 2.575
343.15 K, x1 = 0.297 | 905.31 | – | 3.262
343.15 K, x1 = 0.4001 | 891.27 | – | 3.498
343.15 K, x1 = 0.5013 | 879.56 | – | 3.428
343.15 K, x1 = 0.6019 | 870.06 | – | 3.147
343.15 K, x1 = 0.6939 | 862.44 | – | 2.861
343.15 K, x1 = 0.8006 | 854.81 | – | 2.579
343.15 K, x1 = 0.8989 | 848.84 | – | 2.322
343.15 K, x1 = 1 | 843.77 | – | 2.03
